According to US7880007B2, “Bicyclic substituted phenyl piperidine modulators of muscarinic receptors” (Vertex Pharmaceuticals Incorporated, priority 2004, dated 2011):

What was measured:
Type in all cases: cell-based
[1] = target: T1, M1 muscarinic receptor (Homo sapiens, UniProt P11229); assay: Functional mobilization of intracellular calcium (FLIPR), M1-CHO cells; details: for Emax: 100% efficacy = maximum response obtained with the Carbachol control; for M1 Activity: M1-CHO cells, calcium mobilization (FLIPR)
T1 construct: expressed in transfected cells; host or cells: CHO (M1-CHO)
T1 sequence (P11229 1-460): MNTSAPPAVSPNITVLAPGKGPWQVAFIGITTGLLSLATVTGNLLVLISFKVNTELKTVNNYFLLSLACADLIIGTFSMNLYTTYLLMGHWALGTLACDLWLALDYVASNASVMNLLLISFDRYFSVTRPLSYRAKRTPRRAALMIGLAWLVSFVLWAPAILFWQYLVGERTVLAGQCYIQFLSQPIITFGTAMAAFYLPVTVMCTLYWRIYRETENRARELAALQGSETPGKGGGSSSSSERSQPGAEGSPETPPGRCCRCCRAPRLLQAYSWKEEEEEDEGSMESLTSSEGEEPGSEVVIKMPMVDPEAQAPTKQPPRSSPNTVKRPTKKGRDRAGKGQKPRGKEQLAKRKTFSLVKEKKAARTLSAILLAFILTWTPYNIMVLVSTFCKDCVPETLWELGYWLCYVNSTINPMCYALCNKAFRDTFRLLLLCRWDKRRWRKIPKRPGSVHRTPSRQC
How it was run: (§1)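 CHO cells expressing human M1–M4 receptors loaded with Fluo-3 AM or Calcium 3 dye (1 mM probenecid, pH 7.4); 0.5% DMSO final. Agonist mode: compound added directly; antagonist mode: 15 min pre-incubation or co-application, then carbachol at EC80. Fluorescence read 60 s on FLIPR; efficacy relative to carbachol maximum.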

[2] = target: T2, M4 muscarinic receptor (Homo sapiens, UniProt P08173); assay: Functional mobilization of intracellular calcium (FLIPR), M4-CHO cells; details: for Emax: 100% efficacy = maximum response obtained with the Carbachol control; for M4 Activity: M4-CHO cells, calcium mobilization (FLIPR)
T2 construct: expressed in transfected cells; host or cells: CHO (M4-CHO)
T2 sequence (P08173 1-479): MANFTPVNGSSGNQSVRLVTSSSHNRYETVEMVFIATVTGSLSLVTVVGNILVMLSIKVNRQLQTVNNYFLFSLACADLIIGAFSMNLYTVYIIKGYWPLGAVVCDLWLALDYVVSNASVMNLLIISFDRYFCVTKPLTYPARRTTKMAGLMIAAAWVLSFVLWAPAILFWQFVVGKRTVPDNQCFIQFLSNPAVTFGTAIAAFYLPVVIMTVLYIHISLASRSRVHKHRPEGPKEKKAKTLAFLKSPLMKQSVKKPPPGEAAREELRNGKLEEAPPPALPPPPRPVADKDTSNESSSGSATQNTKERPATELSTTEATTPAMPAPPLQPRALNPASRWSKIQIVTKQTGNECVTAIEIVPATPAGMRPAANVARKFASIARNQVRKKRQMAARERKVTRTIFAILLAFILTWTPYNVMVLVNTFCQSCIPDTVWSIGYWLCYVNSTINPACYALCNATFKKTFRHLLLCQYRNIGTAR
How it was run: as §1

[3] = target: T3, M2 muscarinic receptor (Homo sapiens, UniProt P08172); assay: Functional mobilization of intracellular calcium (FLIPR), M2-CHO cells; details: for Emax: 100% efficacy = maximum response obtained with the Carbachol control; for M2 Activity: M2-CHO cells, calcium mobilization (FLIPR)
T3 construct: expressed in transfected cells; host or cells: CHO (M2-CHO)
T3 sequence (P08172 1-466): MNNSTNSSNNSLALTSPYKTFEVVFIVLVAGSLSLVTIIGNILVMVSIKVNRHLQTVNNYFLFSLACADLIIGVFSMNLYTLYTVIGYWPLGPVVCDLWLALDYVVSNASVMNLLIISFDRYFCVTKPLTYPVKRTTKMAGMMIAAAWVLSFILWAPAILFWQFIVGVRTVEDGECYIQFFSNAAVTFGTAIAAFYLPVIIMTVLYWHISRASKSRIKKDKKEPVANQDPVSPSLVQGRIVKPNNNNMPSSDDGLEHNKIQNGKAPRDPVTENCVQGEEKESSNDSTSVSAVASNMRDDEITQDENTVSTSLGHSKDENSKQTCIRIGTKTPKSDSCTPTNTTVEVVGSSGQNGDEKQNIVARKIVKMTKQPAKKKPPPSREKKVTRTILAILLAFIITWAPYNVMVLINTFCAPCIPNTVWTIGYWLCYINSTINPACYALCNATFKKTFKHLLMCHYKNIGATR
How it was run: as §1

[4] = target: T4, M3 muscarinic receptor (Homo sapiens, UniProt P20309); assay: Functional mobilization of intracellular calcium (FLIPR), M3-CHO cells; details: for Emax: 100% efficacy = maximum response obtained with the Carbachol control; for M3 Activity: M3-CHO cells, calcium mobilization (FLIPR)
T4 construct: expressed in transfected cells; host or cells: CHO (M3-CHO)
T4 sequence (P20309 whole entry): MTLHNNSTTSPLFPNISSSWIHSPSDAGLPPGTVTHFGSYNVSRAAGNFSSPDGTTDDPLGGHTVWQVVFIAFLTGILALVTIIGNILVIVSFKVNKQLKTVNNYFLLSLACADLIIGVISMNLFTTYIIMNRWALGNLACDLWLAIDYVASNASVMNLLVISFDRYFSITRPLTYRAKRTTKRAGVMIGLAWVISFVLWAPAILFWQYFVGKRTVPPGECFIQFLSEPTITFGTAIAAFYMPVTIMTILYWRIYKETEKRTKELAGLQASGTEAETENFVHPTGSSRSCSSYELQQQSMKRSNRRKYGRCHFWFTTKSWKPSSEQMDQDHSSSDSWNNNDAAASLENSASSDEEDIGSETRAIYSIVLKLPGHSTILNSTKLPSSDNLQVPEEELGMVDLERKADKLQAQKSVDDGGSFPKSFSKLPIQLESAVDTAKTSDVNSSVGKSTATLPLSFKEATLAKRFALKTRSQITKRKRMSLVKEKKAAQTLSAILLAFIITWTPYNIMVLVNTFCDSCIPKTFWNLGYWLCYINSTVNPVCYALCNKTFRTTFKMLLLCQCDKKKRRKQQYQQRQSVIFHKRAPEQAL
How it was run: as §1

Cc1ccc(C(F)(F)F)cc1C1CCN(C2C[C@H]3CC[C@H]2C3)CC1 (stereo partly drawn) [Compound 261]
Emax [1]: 25 to 100% | M1 Activity [1]: +++ (activity was measured to be less than 1.0 μM) | Emax [2]: 25 to 100% | M4 Activity [2]: ++ (activity was measured to be from 1.0 μM to 5.0 μM) | Emax [3]: 25 to 100% | M2 Activity [3]: + (activity was measured to be greater than 5.0 μM) | Emax [4]: < 25% | M3 Activity [4]: + (activity was measured to be greater than 5.0 μM)

CCOC(=O)N1CCC(N2CCC(F)(c3cc(F)ccc3OC)CC2)CC1 [Compound 262]
Emax [1]: 25 to 100% | M1 Activity [1]: +++ (activity was measured to be less than 1.0 μM) | Emax [2]: 25 to 100% | M4 Activity [2]: +++ (activity was measured to be less than 1.0 μM) | Emax [3]: < 25% | M2 Activity [3]: + (activity was measured to be greater than 5.0 μM) | Emax [4]: < 25% | M3 Activity [4]: + (activity was measured to be greater than 5.0 μM)

COc1ccc(-c2ccc(CC#N)cc2)cc1C1CCN(C2CCOCC2)CC1 [Compound 263]
Emax [1]: < 25% | M1 Activity [1]: + (activity was measured to be greater than 5.0 μM) | Emax [2]: < 25% | M4 Activity [2]: + (activity was measured to be greater than 5.0 μM) | Emax [3]: < 25% | M2 Activity [3]: + (activity was measured to be greater than 5.0 μM) | Emax [4]: < 25% | M3 Activity [4]: + (activity was measured to be greater than 5.0 μM)

CCOC(=O)N1CCC(CN2CCC(c3cc(C#N)ccc3OC)CC2)CC1 [Compound 264]
Emax [1]: 25 to 100% | M1 Activity [1]: +++ (activity was measured to be less than 1.0 μM) | Emax [2]: 25 to 100% | M4 Activity [2]: +++ (activity was measured to be less than 1.0 μM) | Emax [3]: < 25% | M2 Activity [3]: + (activity was measured to be greater than 5.0 μM) | Emax [4]: < 25% | M3 Activity [4]: + (activity was measured to be greater than 5.0 μM)

COc1ccccc1C1CCN(C2CCC(C)C2)CC1 (stereo not drawn) [Compound 265]
Emax [1]: 25 to 100% | M1 Activity [1]: + (activity was measured to be greater than 5.0 μM) | Emax [2]: 25 to 100% | M4 Activity [2]: +++ (activity was measured to be less than 1.0 μM) | Emax [3]: < 25% | M2 Activity [3]: + (activity was measured to be greater than 5.0 μM) | Emax [4]: < 25% | M3 Activity [4]: + (activity was measured to be greater than 5.0 μM)

COc1ccccc1C1CCN(C2CCN(C(C)=O)CC2)CC1 [Compound 266]
Emax [1]: < 25% | M1 Activity [1]: + (activity was measured to be greater than 5.0 μM) | Emax [2]: 25 to 100% | M4 Activity [2]: ++ (activity was measured to be from 1.0 μM to 5.0 μM) | Emax [3]: < 25% | M2 Activity [3]: + (activity was measured to be greater than 5.0 μM) | Emax [4]: < 25% | M3 Activity [4]: + (activity was measured to be greater than 5.0 μM)

COc1ccc(-c2ccc(F)cc2)cc1C1CCN([C@H]2C[C@H]3CC[C@H]2C3)CC1 [Compound 267]
Emax [1]: 25 to 100% | M1 Activity [1]: + (activity was measured to be greater than 5.0 μM) | Emax [2]: 25 to 100% | M4 Activity [2]: + (activity was measured to be greater than 5.0 μM) | Emax [3]: < 25% | M2 Activity [3]: + (activity was measured to be greater than 5.0 μM) | Emax [4]: < 25% | M3 Activity [4]: + (activity was measured to be greater than 5.0 μM)

COc1ccc(-c2ccc(S(C)(=O)=O)cc2)cc1C1CCN(C2CCCCC2)CC1 [Compound 268]
Emax [1]: 25 to 100% | M1 Activity [1]: + (activity was measured to be greater than 5.0 μM) | Emax [2]: 25 to 100% | M4 Activity [2]: ++ (activity was measured to be from 1.0 μM to 5.0 μM) | Emax [3]: 25 to 100% | M2 Activity [3]: + (activity was measured to be greater than 5.0 μM) | Emax [4]: < 25% | M3 Activity [4]: + (activity was measured to be greater than 5.0 μM)

O=C(COc1ccccc1C1CCN([C@H]2C[C@H]3CC[C@H]2C3)CC1)c1ccccc1 [Compound 269]
Emax [1]: 25 to 100% | M1 Activity [1]: + (activity was measured to be greater than 5.0 μM) | Emax [2]: 25 to 100% | M4 Activity [2]: +++ (activity was measured to be less than 1.0 μM) | Emax [3]: < 25% | M2 Activity [3]: + (activity was measured to be greater than 5.0 μM) | Emax [4]: < 25% | M3 Activity [4]: + (activity was measured to be greater than 5.0 μM)

CCOC(=O)N1C2CCC1CC(N1CCC(c3cc(-c4ccc(C(=O)NC)cc4)ccc3OC)CC1)C2 (stereo not drawn) [Compound 270]
Emax [1]: 25 to 100% | M1 Activity [1]: +++ (activity was measured to be less than 1.0 μM) | Emax [2]: 25 to 100% | M4 Activity [2]: +++ (activity was measured to be less than 1.0 μM) | Emax [3]: < 25% | M2 Activity [3]: + (activity was measured to be greater than 5.0 μM) | Emax [4]: < 25% | M3 Activity [4]: + (activity was measured to be greater than 5.0 μM)

CCOC(=O)N1CCC(CN2CCC(c3ccccc3OC(F)(F)F)CC2)CC1 [Compound 271]
Emax [1]: 25 to 100% | M1 Activity [1]: +++ (activity was measured to be less than 1.0 μM) | Emax [2]: 25 to 100% | M4 Activity [2]: +++ (activity was measured to be less than 1.0 μM) | Emax [3]: 25 to 100% | M2 Activity [3]: ++ (activity was measured to be from 1.0 μM to 5.0 μM) | Emax [4]: < 25% | M3 Activity [4]: + (activity was measured to be greater than 5.0 μM)

CCOC(=O)N1CCC(CN2CCC(c3cc(-c4ccc(C(C)(C)C#N)cc4)ccc3OC)CC2)CC1 [Compound 272]
Emax [1]: 25 to 100% | M1 Activity [1]: +++ (activity was measured to be less than 1.0 μM) | Emax [2]: 25 to 100% | M4 Activity [2]: +++ (activity was measured to be less than 1.0 μM) | Emax [3]: < 25% | M2 Activity [3]: + (activity was measured to be greater than 5.0 μM) | Emax [4]: < 25% | M3 Activity [4]: + (activity was measured to be greater than 5.0 μM)

COc1ccc(Cl)cc1C1CCN(C2CCC(=O)CC2)CC1 [Compound 273, 4-(4-(5-chloro-2-methoxyphenyl)piperidin-1-yl)cyclohexanone]
Emax [1]: 25 to 100% | M1 Activity [1]: + (activity was measured to be greater than 5.0 μM) | Emax [2]: 25 to 100% | M4 Activity [2]: +++ (activity was measured to be less than 1.0 μM) | Emax [3]: 25 to 100% | M2 Activity [3]: ++ (activity was measured to be from 1.0 μM to 5.0 μM) | Emax [4]: < 25% | M3 Activity [4]: + (activity was measured to be greater than 5.0 μM)

Fc1cccc(-c2ccccc2C2CCN([C@H]3C[C@H]4CC[C@H]3C4)CC2)c1 [Compound 274]
Emax [1]: < 25% | M1 Activity [1]: + (activity was measured to be greater than 5.0 μM) | Emax [2]: 25 to 100% | M4 Activity [2]: ++ (activity was measured to be from 1.0 μM to 5.0 μM) | Emax [3]: < 25% | M2 Activity [3]: + (activity was measured to be greater than 5.0 μM) | Emax [4]: < 25% | M3 Activity [4]: + (activity was measured to be greater than 5.0 μM)

COc1ccc(-c2ccc(S(C)(=O)=O)cc2)cc1C1CCN(C2CCCC2)CC1 [Compound 275]
Emax [1]: 25 to 100% | M1 Activity [1]: + (activity was measured to be greater than 5.0 μM) | Emax [2]: 25 to 100% | M4 Activity [2]: ++ (activity was measured to be from 1.0 μM to 5.0 μM) | Emax [3]: 25 to 100% | M2 Activity [3]: + (activity was measured to be greater than 5.0 μM) | Emax [4]: < 25% | M3 Activity [4]: + (activity was measured to be greater than 5.0 μM)
